In patent publication US20030232868A1, “Cyclic carboxylic acids as integrin antagonists” (priority 2000, published 2003):
Read-outs that look alike come from different tables or passages of the source.

Tests used:
[1] = system: adhesion of Ramos cells to VCAM-1; assay: Adhesion of Ramos cells to immobilized VCAM-1 (domains 1-3) (Ramos—VCAM-1 assay); type: cell-based; conditions: Homo sapiens
Text: In Vitro Assay: Adhesion of Jurkat/Ramos Cells to Immobilized VCAM-1 (Domains 1-3)
Preparation of VCAM-1 (Extracellular Domains 1-3)
Complementary DNA (cDNA) encoding 7 domain form of VCAM-1 (GenBank accession #M60335) was obtained using Rapid-Screen™ cDNA library panels (OriGene Technologies, Inc) at Takara Gene Analysis Center (Shiga, Japan). The primers used were 5′-CCAAGGCAGAGTACGCAAAC-3′ (sense) and 5′-TGGCAGGTATTATTAAGGAG-3′ (antisense). PCR amplification of the 3 domain VCAM-1 cDNA was perform using Pfu DNA polymerase (Stratagene) with the following sets of primers: (U-VCAMd1-3) 5′-CCATATGGTACCTGATCAATTTAAAATCGAGACCACCCCAGAA-3′; (L-VCAMd1-3) 5′-CCATATAGCAATCCTAGGTCCAGGGGAGATCTCAACAGTAAA-3′. PCR cycle was 94° C. for 45 sec. 55° C. for 45 sec, 72° C. for 2 min, repeating 15 cycles. After the purification of the PCR product, the fragment was digested with KpnI-AvrII. The digested fragment was ligated into pBluescript IISK(−) (Strategene), which was linearized by digesting with KpnI-XhoI. The ligation was followed by transformation to a Dam/Dcm methylase-free E. coli strain SCS110 (Strategene) to create the donor plasmid pHH7. To direct VCAM-1 molecule into the insect cell secretory pathway, the VCAM-1 coding sequence was fused to signal peptide sequence of honeybee melittin. The resulting melittin-VCAM fusion was placed in correct orientation to the baculovirus polyhedrin promoter. Baculovirus transfer vector containing first 3-domain form VCAM-1 (pH 10) was constructed by ligation of 0.9 kb fragment from AvrII/Klenow/BclI digests of pH 7 into SalI/Klenow/BamHI digests of pMelBacB Invitrogen). Recombinant baculovirus was generated by using Bac-N-Blue™ Transfection kit (Invitrogen) according to the manufacture's instruction. The recombinant virus was amplified by infection to High-Five™ insect cells for 5-6 days, and virus titer was determined by plaque assay.
High-Five™ insect cells were pelleted in a 225 ml conical tube by centrifugation at 1000 rpm for 5 min. After discarding the supernatant, the pellet was resuspended in 1.5×10^9 pfu (MOI=5) of high-titer virus solution, followed by incubation for 1.5 hours at room temperature. The cells were pelleted again and washed once in fresh Express Five™ serum free medium. The cells were pelleted again and finally, resuspended in 200 ml of fresh Express Five TM medium, transferred to a 1,000 ml shaker flask, and incubated in a shaker at 27° C., 130 rpm, for 48 hours before the culture supernatant was collected. The purification of 3-domain form of VCAM-1 from the culture supernatant was performed by one-step anion exchange chromatography. Protein concentration was determined by using Coomassie protein assay reagent (Pierce) according to the manufacture's instruction.
Preparation of VCAM-1 Coated Microtiter Plates
Recombinant human VCAM-1 (extracellular domains 1-3) was dissolved at 1.0 μg/1 ml in PBS. Each well of the microtiter plates (Nalge Nunc International, Fluoro-nunc Cert, 437958) was coated with 100 μl of substrate or for background control with buffer alone for 15 hours at 4 C. After discarding the substrate solution, the wells were blocked using 150 μl per well of block solution Kirkegaard Perry Laboratories, 50-61-01) for 90 minutes. The plate was washed with wash buffer containing 24 mM Tris-HCl (pH 7.4), 137 mM NaCl, […] and 2 MM MnCl2 just before addition of the assay.
In Vitro Assay using Ramos Cells
Preparation of Fluorescence Labeled Ramos Cells:
Ramos cells (American Type Culture Collection, Clone CRL-1596) were cultured in RPMI 1640 medium (Nikken Bio Medical Laboratory, CM1101) supplemented with 10% fetal bovine serum (Hyclone, A-1119-L), 100 U/ml penicilin (Gibco BRL, 15140-122) and 100 μg/ml streptomycin (Gibco BRL, 15140-122) in a humidified incubator at 37° C. with 5% CO2. […]

Structure (SMILES)	IC50 ([1]; Cell Type Ramos, adhesion to VCAM-1 coated plates, 1 hour at 37 C, IC50 value ranges, read-out: IC50)	melting point	IC50 ([1]; Ramos, 1 h)
Cc1ccccc1NC(=O)Nc1ccc(CC(=O)N[C@@H](CCCCN)C(=O)Nc2ccc(C(=O)O)cc2)cc1.O=C(O)C(F)(F)F [Example 58]	< 500 nM	168 to 169 °C	
COCCCN(CC(=O)Nc1ccc(C(=O)O)cc1)C(=O)Cc1ccc(NC(=O)Nc2ccccc2C)cc1 [Example 59]		210 to 218 °C	< 500 nM
